In patent US20240390327A1, “THERAPEUTIC COMPOSITIONS AND METHODS” (Johns Hopkins University, priority 2021, published 2024):
Entries after “also recorded” stand apart in the source; their conditions may differ.

Assays:
[1] = test system: patients (adult traumatic brain injury; pediatric and neonatal trials); conditions: cited from earlier work
CAM-IVH rats = experiment: Intra-aural distance (macrocephaly) in CAM-IVH model of PHHP; type: in vivo, rat; conditions: treatment P2-P10, followed through P21
Description: For each experiment with a statistical analysis, a power analysis was performed to estimate the required sample size (G*Power 3.1.9.3). We used preliminary and published data to estimate means and standard deviations for each group for the primary outcomes of intra-aural distance, ventriculomegaly, neurodevelopmental assessment, qPCR, and DTI analyses (Farkas et al., 2009; Yung et al., 2011; Baharnoori et al., 2012; Jantzie et al., 2014a,b, 2018; Robinson et al., 2016). Scanning electron microscopy qualitative analysis of EMC was set a priori as two per group. Primary endpoints were set a priori as described in the text, and were daily (P4-P15 and P21) for IAD and neurodevelopment, P5 for ventriculomegaly, P15 for periventricular YAP mRNA, and P21 for remaining assays. No animals were individually excluded except, as noted in the text, those who were removed prior to P21 due to poor health. DTI images from one rat were excluded due to poor image acquisition quality prior to quantification. Rats from both institutions and at least two separate litters were used for all experiments, except rats for SEM were prepared at one institution. Rats from both sexes were randomly assigned to injury (CAM versus sham at E18, IVH versus vehicle at P1) and to treatment group (EPO+MLT or vehicle on P2 for CAM-IVH rats). […]

[2] = test system: rats with prenatal injury (TSHI plus intra-amniotic LPS); experiment: Open field after prenatal injury (chorioamnionitis model of cerebral palsy); type: in vivo, rat; conditions: P28-P30 open field
From the text: As placental structure and function is of significant clinical importance to neurologic sequelae in preterm survivors (59-61), we use a prenatal model of in utero transient systemic HI (TSHI) and intra-amniotic lipopolysaccharide (LPS) administration in pregnant rats (62-64). This approach capitalizes on an intact maternal-placental-fetal unit and is a model of PBI from extreme preterm birth (<28 weeks of gestation) that mimics dual intrauterine injury from placental underperfusion and chorioamnionitis (65). Briefly, under isoflurane anesthesia, a laparotomy is performed on embryonic day (E) 18. Uterine arteries are clamped for 60 min and followed by intra-amniotic injections of LPS (4 μg/sac; 0111:B4, Sigma, St. Louis, MO, USA) (62, 64, 65). Sham controls undergo anesthesia and laparotomy for 60 min without arterial clamping or LPS injections. Following closure of the laparotomy, dams receive narcotic pain medication, recover, and pups are born vaginally at E22, approximately equal to 30-32 weeks in human gestation. We have previously reported the effects of TSHI and LPS alone, and in concert, on CNS pathological hallmarks, functional motor outcomes, histologic placental injury, and expression of common pro-inflammatory cytokines (63, 64).
When EPO was administered in isolation, it was given from P1 to P5 at 2,000 U/kg/dose as previously published (47, 48, 54, 55, 71, 72). […]

PBMCs = experiment: PBMC secretome after buprenorphine stimulation in culture; conditions: P21 PBMCs, 3 h culture; EPO 10 U/mL + MLT 20 μM; naloxone 10 μM
naïve rats = experiment: EPO+MLT regimen in naïve neonatal rats, unanticipated effects; type: in vivo, rat; conditions: doses administered the same time of day
Description: To test if EPO+MLT could prevent the onset of PHHP, on P2 CAM+IVH rats were randomized to receive either EPO+MLT or vehicle from P2 (equivalent to approximately 32 weeks human gestation) to P10 (full term in humans). Six doses of EPO (2500 U/kg/dose i.p.) or vehicle were administered on P2-P5, P7 and P9. Nine doses of MLT (20 mg/kg/dose i.p.) or vehicle were administered on P2-P10. A subset of 36 CAM-IVH pups were randomized to receive vehicle, EPO alone, MLT alone, or EPO+MLT to test impact of treatment on macrocephaly. […] To determine if EPO+MLT had any unanticipated effect on normal neurodevelopment, a set of naïve pups underwent EPO+MLT treatment.
Neurodevelopmental battery included nine tests (surface righting, negative geotaxis, cliff aversion, forelimb grasp, audio startle, eye opening, ear twitch, forelimb placement, and air righting) (Farkas et al., 2009; Bahamoori et al., 2012). Since no differences with audio startle or eye opening were noted across groups, these two tests were not included for naïve rats. Observers blinded to injury and treatment group tested 146 rats each day from P4 to P15, and then at P21.
To determine if the progressive macrocephaly and poor cliff aversion performance observed in CAM-IVH rats was preventable, we assessed the efficacy of combined EPO+MLT treatment in the neonatal period in a separate cohort of rats (n=88). […]

rats with PCL syndrome = experiment: Diffusion tensor imaging in PCL model; type: in vivo, rat; conditions: 11.7T MRI
Description: Diffusion Tensor Imaging was performed on an 11.7T Bruker MRI scanner. These images were processed to assign directional colors ([…] transverse, blue vertical, and green orthogonal to the plane).

[3] = test system: rats with PCL syndrome (LPS plus Poly IC); experiment: Nociception (mechanical allodynia, thermal hypersensitivity) in Post-COVID Like (PCL) model; type: in vivo, rat; conditions: chronic pain lasting greater than 2 months
Description: LPS (3 mg/kg ip) is given to prime the immune system of rats on postnatal (P) 45, 46 and P47. Subsequently, Poly IC (2, 3, or 5 mg/kg ip) is given on P55 to mimic a viral exposure. The response to these stimuli are studied in the following acute, subacute and chronic timepoints. Pain and activity in an open field are outcome measures we use routinely to track the development of the PCL syndrome.
For experimental design and development of pel syndrome with cognitive assessment, LPS (3 mg/kg ip) is given to prime the immune system of rats on postnatal (P) 45, 46 and P47. Subsequently, Poly IC (5 mg/kg ip) is given on P55 to mimic a viral exposure. The response to these stimuli are studied in the following acute, subacute and chronic timepoints. Pain and Activity in an Open Field are outcome measures we use routinely to track the development of the PCL syndrome. Similarly, Touchscreen cognitive assessment occurs simultaneously throughout the Acute, SubAcute and Chronic Phases. Using a touchscreen assessment platform, we first assess visual discrimination. We then assess cognitive flexibility through a test of reversal learning, and then a test of attention called 5 choice serial reaction (5CSRTT).
After priming the immune system with systemic lipopolysaccharide (LPS) on postnatal day 45-47, rats receive the viral mimetic poly(I:C) on P55.

Compound	adverse events in pediatric and neonatal EPO trials ([1]; high-dose, extended EPO regimens)	adverse events in meta-analyses of EPO for severe adult traumatic brain injury ([1]; versus placebo)	intra-aural distance (IAD), progressive macrocephaly (CAM-IVH rats)	disinhibition (open field) [2]	secretion of interferon gamma and IL-6 by PBMCs treated with buprenorphine (PBMCs)	impact on the circadian rhythm (naïve rats)	white matter microstructural integrity (directional color DTI) (rats with PCL syndrome)	chronic thermal hypersensitivity [3]
EPO: erythropoietin compound or erythropoietin, in particular human recombinant erythropoietin	no adverse events have emerged with high-dose, extended EPO regimens in neonatal trials	no adverse events were evident compared to placebo treatment	the IADs were not significantly different compared littermates that received vehicle	does not; also recorded: did not improve disinhibition	–	–	–	–
C=CCN1CC[C@]23c4c5ccc(O)c4O[C@H]2C(=O)CC[C@@]3(O)[C@H]1C5 [naloxone]	–	–	–	–	blocked the secretion of these proinflammatory mediators	–	–	–
COc1ccc2[nH]cc(CCNC(C)=O)c2c1 [MLT, N-acetyl-5-methoxytryptamine]	–	–	the IADs were not significantly different compared littermates that received vehicle	–	–	no impact was evident	the microstructural integrity is altered and the colors are muted	neither ROX nor MLT alone
